Source: ChEMBL document CHEMBL5042513, “Discovery of 2H-chromone-4-one based sulfonamide derivatives as potent retinoic acid receptor-related orphan receptor γt inverse agonists” (Eur J Med Chem, 2022)

Key:
[1] = Lipophilicity, logD of the compound at pH 7.4; conditions: buffer
[2] = target: T1, Nuclear receptor ROR-gamma (Homo sapiens, UniProt P51449)
T1 sequence (P51449 whole entry): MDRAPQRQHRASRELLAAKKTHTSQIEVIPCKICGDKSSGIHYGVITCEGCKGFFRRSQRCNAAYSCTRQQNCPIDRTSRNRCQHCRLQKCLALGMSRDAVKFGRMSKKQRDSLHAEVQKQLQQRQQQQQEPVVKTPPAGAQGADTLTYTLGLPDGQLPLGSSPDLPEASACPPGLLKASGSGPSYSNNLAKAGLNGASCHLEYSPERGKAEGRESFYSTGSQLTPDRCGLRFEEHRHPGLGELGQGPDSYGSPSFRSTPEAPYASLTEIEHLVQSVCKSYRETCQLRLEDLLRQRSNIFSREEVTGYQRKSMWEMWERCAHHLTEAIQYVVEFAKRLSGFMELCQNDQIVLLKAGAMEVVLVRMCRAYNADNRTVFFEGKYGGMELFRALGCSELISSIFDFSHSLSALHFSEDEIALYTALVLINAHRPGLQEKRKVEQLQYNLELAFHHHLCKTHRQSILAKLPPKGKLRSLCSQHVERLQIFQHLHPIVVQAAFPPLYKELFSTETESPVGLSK
Description: Inverse agonist activity at RORgammat (unknown origin) transfected in human Jurkat cells assessed as inhibition of RORgammat transcriptional activity incubated for 8 hrs by luciferase reporter gene assay

[3] = target: T1, Nuclear receptor ROR-gamma; assay: Displacement of BODIPY from APC-labelled RORgammat LBD (unknown origin) incubated for 1 hrs by binding assay
[4] = Metabolic stability in human liver microsomes assessed as parent compound remaining level at 10 uM in presence of NADPH incubated for 60 mins by HPLC-MS/MS analysis
in vitro [5] = conditions: human, liver microsomes
Description: Metabolic stability in human liver microsomes assessed as half life at 10 uM in presence of NADPH by HPLC-MS/MS analysis

in vitro [6] = conditions: human, liver microsomes; remark: listed apart in the source
Description: Metabolic stability in human liver microsomes assessed as intrinsic clearance at 10 uM in presence of NADPH by HPLC-MS/MS analysis

in vivo [7] = conditions: mouse, po, 1 mg/kg
Mus musculus [8] = species on record: Mus musculus; assay: animal or person; conditions: BALB/c, po, 312 h, read-out: INH
Description: Protection against imiquimod-induced psoriasis model of BALB/c mouse assessed as inhibition of psoriasis clinical score at 10 mg/kg, po administered for 13 days

in vivo [9] = conditions: mouse, iv, 0.3 mg/kg
in vivo [10] = conditions: mouse, po, 1 mg/kg; remark: listed apart in the source
Mus musculus [11] = species on record: Mus musculus; assay: animal or person; conditions: BALB/c, po, 312 h, read-out: INH; remark: listed apart in the source
Description: Protection against imiquimod-induced psoriasis model of BALB/c mouse assessed as inhibition of psoriasis clinical score at 20 mg/kg, po administered for 13 days

in vivo [12] = conditions: mouse, po, 1 mg/kg; remark: listed apart in the source
in vivo [13] = conditions: mouse, po, 1 mg/kg; remark: listed apart in the source
in vivo [14] = conditions: mouse, po, 1 mg/kg; remark: listed apart in the source
in vivo [15] = conditions: mouse, iv, 0.3 mg/kg; remark: listed apart in the source
in vivo [16] = conditions: mouse, iv, 0.3 mg/kg; remark: listed apart in the source
in vivo [17] = conditions: mouse, po, 1 mg/kg; remark: listed apart in the source
in vivo [18] = conditions: mouse, iv, 0.3 mg/kg; remark: listed apart in the source
in vivo [19] = conditions: mouse, iv, 0.3 mg/kg; remark: listed apart in the source
in vivo [20] = conditions: mouse, iv, 0.3 mg/kg; remark: listed apart in the source
in vivo [21] = conditions: mouse, iv, 0.3 mg/kg; remark: listed apart in the source

CC(C)CN(c1ccc(C#N)cc1)S(=O)(=O)c1ccc2c(c1)C(=O)CC(C1CCOCC1)O2 (stereo unspecified)
logD [1]: 3.16

CCc1ccc(N(CC(C)C)S(=O)(=O)c2ccc3cc(OCC4CCOCC4)c(C(=O)O)cc3c2)cc1
IC50 [2]: > 10 µM | logD [1]: 1.77 | IC50 [3]: > 10 µM

CCc1ccc(N(CC(C)C)S(=O)(=O)c2ccc3cc(OCC4CCOCC4)c(CO)cc3c2)cc1
logD [1]: 5.1

CCc1ccc(N(CC(C)C)S(=O)(=O)c2ccc3c(c2)C(=O)CC(C2CCN(S(C)(=O)=O)CC2)O3)cc1 (stereo unspecified)
logD [1]: 3.31

CCc1ccc(N(CC(C)C)S(=O)(=O)c2ccc3cc(OCC4CCOCC4)c(C(=O)OC)cc3c2)cc1
logD [1]: 6.09

CC(C)CN(c1ccc(F)cc1)S(=O)(=O)c1ccc2c(c1)C(=O)CC(C1CCOCC1)O2 (stereo unspecified)
logD [1]: 3.48 | remaining at 1 h, 10 µM [4]: 0.2% | half-life at 10 µM (in vitro [5]): 0.7 min | CLint scaled at 10 µM (in vitro [6]): 1760 mL/min/kg

CCc1ccc(N(CC(C)C)S(=O)(=O)c2ccc3c(c2)C(=O)CC(C2(C)CCOCC2)O3)cc1 (stereo unspecified)
logD [1]: 4.71

CCc1ccc(N(C2CCC2)S(=O)(=O)c2ccc3c(c2)C(=O)CC(C2CCOCC2)O3)cc1 (stereo unspecified)
logD [1]: 3.78

CC(C)CN(c1cccc(F)c1)S(=O)(=O)c1ccc2c(c1)C(=O)CC(C1CCOCC1)O2 (stereo unspecified)
logD [1]: 3.5

CCc1ccc(NS(=O)(=O)c2ccc3c(c2)C(=O)CC(C2CCOCC2)O3)cc1 (stereo unspecified)
logD [1]: 2.67

CCc1ccc(N(CC(C)C)S(=O)(=O)c2ccc3c(c2)C(=O)CC(C2CCN(C(=O)OC(C)(C)C)CC2)O3)cc1 (stereo unspecified)
IC50 [2]: > 10 µM | logD [1]: 5.1 | IC50 [3]: > 10 µM

CC(C)CN(C1CCc2ccc(F)cc21)S(=O)(=O)c1ccc2c(c1)C(=O)CC(C1CCOCC1)O2 (stereo unspecified)
logD [1]: 4.03

CCc1ccc(N(CC(C)C)S(=O)(=O)c2ccc(OCC3CCOCC3)c3c2CCCC3=O)cc1
logD [1]: 4.84

CCc1ccc(N(CC(C)C)S(=O)(=O)c2ccc3oc(C4CCOCC4)cc(=O)c3c2)cc1
logD [1]: 4.5

Cc1nc(N2CCOCC2)ccc1N(CC(C)C)S(=O)(=O)c1ccc2c(c1)C(=O)CC(C1CCOCC1)O2 (stereo unspecified)
Cmax at 24 h (in vivo [7]): 82 ng/mL | inhibition in vivo at 10 mg/kg (Mus musculus [8]): 54.5% | AUC(0-inf) at 24 h (in vivo [9]): 140 ng·h/mL | logD [1]: 3.04 | AUC(0-inf) at 24 h (in vivo [10]): 219 ng·h/mL | inhibition in vivo at 20 mg/kg (Mus musculus [11]): 77.7% | remaining at 1 h, 10 µM [4]: 50.2% | AUC(0-t) at 24 h (in vivo [12]): 212 ng·h/mL | half-life at 10 µM (in vitro [5]): 59 min | Tmax at 24 h (in vivo [13]): 95.4 min | bioavailability at 24 h (in vivo [14]): 47% | half-life at 24 h (in vivo [15]): 56.4 min | Vd at 24 h (in vivo [16]): 1.62 L/kg | half-life at 24 h (in vivo [17]): 88.2 min | Tmax at 24 h (in vivo [18]): 61.2 min | AUC(0-t) at 24 h (in vivo [19]): 135 ng·h/mL | CLint scaled at 10 µM (in vitro [6]): 21.1 mL/min/kg | clearance at 24 h (in vivo [20]): 30.2 mL/min/kg | Cmax at 24 h (in vivo [21]): 75 ng/mL

CCc1ccc(N(CC(F)(F)F)S(=O)(=O)c2ccc3c(c2)C(=O)CC(C2CCOCC2)O3)cc1 (stereo unspecified)
logD [1]: 3.97

CCc1ccc(N(C2COC2)S(=O)(=O)c2ccc3c(c2)C(=O)CC(C2CCOCC2)O3)cc1 (stereo unspecified)
IC50 [2]: > 10 µM | logD [1]: 2.72 | IC50 [3]: > 10 µM

CC(C)CN(Cc1ccccc1C(F)(F)F)S(=O)(=O)c1ccc2c(c1)C(=O)CC(C1CCOCC1)O2 (stereo unspecified)
logD [1]: 4.32

CC(C)CN(c1ccc(F)cc1F)S(=O)(=O)c1ccc2c(c1)C(=O)CC(C1CCOCC1)O2 (stereo unspecified)
logD [1]: 3.62

CCc1ccc2c(c1)CC(C)CN2S(=O)(=O)c1ccc2c(c1)C(=O)CC(C1CCOCC1)O2 (stereo unspecified)
IC50 [2]: > 10 µM | logD [1]: 3.77 | IC50 [3]: > 10 µM

CCc1ccc(N(CC(C)C)S(=O)(=O)c2ccc3c(c2)C(=O)CC(C(C)C2CCOCC2)O3)cc1 (stereo unspecified)
logD [1]: 4.93

CCc1ccc(N(CC(C)C)S(=O)(=O)c2ccc3cc(OCC4CCOCC4)c(C(=O)OCC4CCOCC4)cc3c2)cc1
logD [1]: 6.34

CCc1ccc(N(CC(C)C)S(=O)(=O)c2ccc3c(c2)C(=O)N(C2CCOCC2)C3)cc1
logD [1]: 3.64

CCc1ccc(N(CC(C)C)S(=O)(=O)c2ccc3c(c2)C(=O)CC(C2CCN(S(=O)(=O)C4CCCC4)CC2)O3)cc1 (stereo unspecified)
logD [1]: 4.75

Cc1ccc(NS(=O)(=O)c2ccc3c(c2)C(=O)CC(C2CCOCC2)O3)c(C)c1 (stereo unspecified)
logD [1]: 2.75

CCc1ccc(N(CC2CCC2)S(=O)(=O)c2ccc3c(c2)C(=O)CC(C2CCOCC2)O3)cc1 (stereo unspecified)
logD [1]: 4.1

O=C1CC(C2CCOCC2)Oc2ccc(S(=O)(=O)N3CCCC3c3ccccc3C(F)(F)F)cc21 (stereo unspecified)
logD [1]: 3.5

CC(C)CN(c1ccc(C(C)(C)C)cc1)S(=O)(=O)c1ccc2c(c1)C(=O)CC(C1CCOCC1)O2 (stereo unspecified)
logD [1]: 4.97

CCS(=O)(=O)c1ccc(CNS(=O)(=O)c2ccc3c(c2)C(=O)CC(C2CCOCC2)O3)nc1 (stereo unspecified)
IC50 [2]: > 10 µM | logD [1]: 0.32 | IC50 [3]: > 10 µM

Cc1ccc(N(C2CCC2)S(=O)(=O)c2ccc3c(c2)C(=O)CC(C2CCOCC2)O3)c(C)c1 (stereo unspecified)
logD [1]: 3.86 | remaining at 1 h, 10 µM [4]: 4.5% | half-life at 10 µM (in vitro [5]): 6.2 min | CLint scaled at 10 µM (in vitro [6]): 202 mL/min/kg

CC(C)CN(c1ccccc1F)S(=O)(=O)c1ccc2c(c1)C(=O)CC(C1CCOCC1)O2 (stereo unspecified)
logD [1]: 3.44

CCc1ccc(N(CC(C)C)S(=O)(=O)c2ccc3c(c2)C(=O)CC(C2CCNCC2)O3)cc1 (stereo unspecified)
logD [1]: 2.21

CCc1ccc(N(Cc2ccccc2)S(=O)(=O)c2ccc3c(c2)C(=O)CC(C2CCOCC2)O3)cc1 (stereo unspecified)
logD [1]: 4.84

CCc1ccc(N(CC2CC2)S(=O)(=O)c2ccc3c(c2)C(=O)CC(C2CCOCC2)O3)cc1 (stereo unspecified)
logD [1]: 3.77 | remaining at 1 h, 10 µM [4]: 23% | half-life at 10 µM (in vitro [5]): 22.3 min | CLint scaled at 10 µM (in vitro [6]): 55.8 mL/min/kg

CC(C)CN(c1ccc(N(C)C)cc1)S(=O)(=O)c1ccc2c(c1)C(=O)CC(C1CCOCC1)O2 (stereo unspecified)
logD [1]: 3.6 | remaining at 1 h, 10 µM [4]: 11.5% | half-life at 10 µM (in vitro [5]): 12.8 min | CLint scaled at 10 µM (in vitro [6]): 98.5 mL/min/kg

CCc1ccc(N(CC(C)C)S(=O)(=O)c2ccc3c(c2)C(=O)CC(CC2CCOCC2)O3)cc1 (stereo unspecified)
logD [1]: 4.53

CCc1ccc(N(CC(C)C)S(=O)(=O)c2ccc3c(c2)C(=O)CC(C2CCN(C(=O)C4CCCC4)CC2)O3)cc1 (stereo unspecified)
logD [1]: 5.13

CC(C)CN(c1cc2ccccc2s1)S(=O)(=O)c1ccc2c(c1)C(=O)CC(C1CCOCC1)O2 (stereo unspecified)
logD [1]: 4.01

CCc1ccc(N(CC(C)C)S(=O)(=O)c2ccc3c(c2)C(F)CC(C2CCOCC2)O3)cc1 (stereo unspecified)
logD [1]: 5.02

CCc1ccc(N(CC(C)C)S(=O)(=O)c2ccc(OCC3CCOCC3)c(CO)c2)cc1 [GSK2981278]
remaining at 1 h, 10 µM [4]: 0.2% | CLint scaled at 10 µM (in vitro [6]): 1610 mL/min/kg
